In ChEMBL document CHEMBL1127396, “Adenosine deaminase inhibitors. Synthesis and biological evaluation of putative metabolites of (+)-erythro-9-(2S-hydroxy-3R-nonyl)adenine” (J Med Chem, 1994):

target: T1, Adenosine deaminase (Bos taurus, UniProt P56658); experiment: Tested for binding affinity against calf intestinal Adenosine Deaminase (ADA)
T1 sequence (P56658 whole entry): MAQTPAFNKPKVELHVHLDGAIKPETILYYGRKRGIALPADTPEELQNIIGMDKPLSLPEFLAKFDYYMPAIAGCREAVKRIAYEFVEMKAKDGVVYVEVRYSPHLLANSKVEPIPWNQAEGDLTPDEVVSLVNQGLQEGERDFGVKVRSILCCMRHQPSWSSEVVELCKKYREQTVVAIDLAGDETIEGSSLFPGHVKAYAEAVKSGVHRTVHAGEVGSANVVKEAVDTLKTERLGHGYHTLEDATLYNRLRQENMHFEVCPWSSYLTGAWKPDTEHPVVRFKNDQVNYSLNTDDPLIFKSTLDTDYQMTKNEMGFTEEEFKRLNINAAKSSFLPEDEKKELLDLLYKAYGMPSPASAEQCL

With `CCCCCC[C@H]([C@H](C)O)n1c(O)nc2c(N)ncnc21` as the compound, how does the Ki read?
Its Ki is 6.4 nM.

Which Ki does the source give for `CCCCCC[C@H]([C@H](C)O)[N+]1([O-])C=Nc2c(N)ncnc21` (some centres undefined) here?
Its Ki is 3.8 nM.

With `CCCCCC[C@H]([C@H](C)O)[N+]1([O-])C(=O)Nc2c(N)ncnc21` (some centres undefined) as the compound, how does the Ki read?
The Ki was 15.8 nM.

Which Ki does the source give for `CCCCCC[C@H]([C@H](C)O)n1cnc2c(N)ncnc21` [(+)-EHNA] here?
The Ki was 0.82 nM.
